Source: patent US20220389077A1, “ALLOGENEIC CELL COMPOSITIONS AND METHODS OF USE” (Poseida Therapeutics, Inc., priority 2018, published 2022)
Entries after “also recorded” stand apart in the source; their conditions may differ. Like-named read-outs stand apart in the source and are kept apart here.

Key:
[1] = cited from earlier work
cells [2] = assay: AP1903 amount needed in vitro for effective signaling of cells; type: cell-based; details: 1600 Da MW
Description: The fixed dose of AP1903 for injection used, for example, may be 0.4 mg/kg intravenously infused over 2 hours. The amount of AP1903 needed in vitro for effective signaling of cells is 10-100 nM (1600 Da MW). This equates to 16-160 μg/L or ^˜0.016-1.6 μg/kg (1.6-160 μg/kg). Doses up to 1 mg/kg were well-tolerated in the Phase I study of AP1903 described above. Therefore, 0.4 mg/kg may be a safe and effective dose of AP1903 for this Phase I study in combination with the therapeutic cells.

cells [3] = details: cited from earlier work
human CD58 [4] = biological target: T1, human CD58 (Homo sapiens, UniProt P19256); assay: T cell degranulation (CD107a) against CD58-positive cell targets; type: cell-based; details: 4-6 hours coculture; K562 or Rat2 cells with mRNA encoding human CD58
T1 construct: expressed in transfected cells; host or cells: K562 (electroporated) or Rat2 (lipofected) cells
T1 sequence (P19256 29-250): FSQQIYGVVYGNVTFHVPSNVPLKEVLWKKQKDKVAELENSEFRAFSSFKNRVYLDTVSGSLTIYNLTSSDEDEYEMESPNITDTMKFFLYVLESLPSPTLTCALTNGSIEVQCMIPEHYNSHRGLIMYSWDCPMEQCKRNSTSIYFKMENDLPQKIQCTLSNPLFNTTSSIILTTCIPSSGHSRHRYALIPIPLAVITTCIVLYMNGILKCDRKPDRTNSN
Description: FIG. 23B is a series of bar graphs showing CSR CD2z mutant degranulation data. The panel of CSR CD2z mutants was tested for the capability of mediating degranulation against CD58-positive cell targets. T cell degranulation is a surrogate of T cell killing that can be measured by FACS staining for intracellular CD107a expression following coculture with target cell lines expressing target antigen. Specifically, pan T cells from normal blood donors were stimulated with anti-CD3/anti-CD28 beads in standard T cell culture media, then rested. These cells were then electroporated (BTX ECM 830 electroporator @ 500V for 700 μs) with 9 μg of mRNA expressing CSR CD2z mutants and cultured overnight. The next day, the cells were cocultured for 4-6 hours in the presence of various target cell lines. Positive target cell lines included K562 cells or Rat2 cells that were electroporated or lipofected, respectively, with mRNA encoding human CD58, while negative controls were either Rat2 cells that were not electroporated or CSR CD2z mutant expressing T cells alone.
(§1) FIG. 23C is a summary of staining and degranulation data. Data from surface-expression and binding studies, as well as those from degranulation experiments for each CSR CD2z mutant is summarized in the table.
(§2) FIG. 23D is a series of flow cytometry plots showing the expression of CD48, CD58 or CD59 on K562 and Rat2 cells. To confirm possible ligands for the CSR WT CD2z molecule, a panel of known and suspected ligands including human CD48, CD58, and CD59 were tested. Degranulation of engineered T cells was evaluated against the cell lines K562 and Rat2 that were made to overexpress the target ligands and confirmed for expression by FACS staining. Red histograms are unstained cells and blue histograms are cells that were electroporated/lipofected with mRNA and then stained for expression of the respective marker by FACS.
FIG. 23E is a bar graph showing that CSR CD2z recognizes human CD58, but not CD48 or CD59. To confirm possible ligands for the CSR WT CD2z molecule, a panel of known and suspected ligands including human CD48, CD58, and CD59 were tested. Degranulation of engineered T cells was evaluated against the cell lines K562 and Rat2 that were made to overexpress the target ligands and confirmed for expression by FACS staining. Cells were electroporated/lipofected with mRNA and then stained for expression of the respective marker by FACS. As a control, a BCMA CAR was included as well as a K562 cell line overexpressing BCMA. In addition, T cells transfected with GFP were also included as a control. T cell degranulation is a surrogate of T cell killing that can be measured by FACS staining for intracellular CD107a expression following coculture with target cell lines expressing target antigen. Pan T cells from normal blood donors were stimulated with anti-CD3/anti-CD28 beads in standard T cell culture media, then rested. These T cells were then electroporated with mRNA expressing CSR WT CD2z, BCMA CAR, or GFP and cultured overnight. The next day, the cells were cocultured for 4-6 hours in the presence of the various target cell lines that were electroporate/lipofected with mRNA encoding human CD48, CD58 or CD59, while negative controls were either K562 or Rat2 cells that were not electroporated/lipofected, or each of the electroporated T cells alone.

TCRb and b2M = assay: Gene editing (knockout of TCR and MHCI) of Allo CAR-T cells with CSR; type: cell-based, human; details: up to 14-day culture; CSR stable or transient
Description: Pan T cells isolated from healthy donor blood were genetically modified using the piggyBac® DNA modification system in combination with the Cas-CLOVER™ gene-editing system (CC) to produce allogeneic (Allo) CAR-T cells. […] Following EP, all cells were subsequently stimulated with a cocktail of agonist mAbs anti-CD2, anti-CD3 and anti-CD28, and were later selected for genetic modification over the course of up to a 14-day culture period using the selection gene. At the end of the initial culture period, all T cells expressed the CAR, indicating successful selection for genetically-modified cells (data not shown). All samples were performed in duplicate, and data is shown in bar graph where error bars represent standard deviation.

[5] = test system: anti-CD2 activator reagent, anti-CD2 monoclonal antibody (clone TS1/8), anti-CD2 polyclonal antibody reagent; assay: CSR CD2z mutant surface expression and staining with anti-CD2 antibody reagents in K562 cells; type: binding; details: 9 μg mRNA, next day
Description: FIG. 23A is a bar graph showing CSR CD2z mutant staining data. A panel of CSR CD2z mutants was designed, constructed, and tested for surface expression and binding to several anti-CD2 antibody reagents. To do so, each mutant was synthesized, subcloned into an in-house mRNA production vector, and then high-quality mRNA was produced for each. K562 cells were electroporated with 9 μg of mRNA, and surface-expression of each molecule was analyzed by flow cytometry the next day and data are shown as bar graphs. Each molecule was stained with anti-CD2 activator reagent, anti-CD2 monoclonal antibody (clone TS1/8), or anti-CD2 polyclonal antibody reagent (goat anti-human CD2).
as §1

Allo CAR-T cells = assay: Expansion of Allo CAR-T cells with WT or mutant (D111H) CSR CD2z; type: cell-based, human; details: up to 15-day culture; CSR stable or transient
Description: FIG. 24A is a bar graph showing that the delivery of CSR CD2z-D111H mutant enhances the expansion of Allo CAR-T cells. Pan T cells isolated from healthy donor blood were genetically modified using the piggyBac® DNA modification system in combination with the Cas-CLOVER™ gene-editing system (CC) for the production of allogeneic (Allo) CAR-T cells, or without CC gene-editing, as a control, for the production of autologous (Auto) CAR-T without a CSR (No CSR); auto CAR-T cells were produced by nucleofection of an mRNA encoding the super piggyBac™ transposase enzyme (SPB) and a transposon encoding a CAR, selection gene and a safety switch. […] Following EP, all cells were subsequently stimulated with a cocktail of agonist mAbs anti-CD2, anti-CD3 and anti-CD28, and were later selected for genetic modification over the course of up to a 15-day culture period using the selection gene. At the end of the initial culture period, all T cells expressed the CAR, indicating successful selection for genetically-modified cells (data not shown), and then all non-edited TCR-positive cells were depleted via negative selection to yield a population of Allo CAR-T cells that were >99% TCR-negative (data not shown).

human CD58 [6] = biological target: T2, human CD58 (human, UniProt P19256 29-250); assay: inferred from T-cell degranulation (CD107a) against K562/Rat2 cells overexpressing human CD58
T2 construct: whole, on cells
T2 sequence (looked up): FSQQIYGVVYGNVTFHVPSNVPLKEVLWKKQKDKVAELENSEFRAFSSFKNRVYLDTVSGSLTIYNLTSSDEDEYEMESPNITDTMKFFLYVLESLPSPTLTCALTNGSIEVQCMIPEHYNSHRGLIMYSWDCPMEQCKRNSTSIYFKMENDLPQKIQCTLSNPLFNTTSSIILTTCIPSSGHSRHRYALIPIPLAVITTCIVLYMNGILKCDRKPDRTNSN
Description: as §2
FIG. 23E is a bar graph showing that CSR CD2z recognizes human CD58, but not CD48 or CD59. To confirm possible ligands for the CSR WT CD2z molecule, a panel of known and suspected ligands including human CD48, CD58, and CD59 were tested. Degranulation of engineered T cells was evaluated against the cell lines K562 and Rat2 that were made to overexpress the target ligands and confirmed for expression by FACS staining. Cells were electroporated/lipofected with mRNA and then stained for expression of the respective marker by FACS. […] T cell degranulation is a surrogate of T cell killing that can be measured by FACS staining for intracellular CD107a expression following coculture with target cell lines expressing target antigen. […]

Q: Which results are given for `CC[C@H](C(=O)N1CCCC[C@H]1C(=O)O[C@H](CCc1ccc(OC)c(OC)c1)c1cccc(OCC(=O)NCCNC(=O)COc2cccc([C@@H](CCc3ccc(OC)c(OC)c3)OC(=O)[C@@H]3CCCCN3C(=O)[C@@H](CC)c3cc(OC)c(OC)c(OC)c3)c2)c1)c1cc(OC)c(OC)c(OC)c1` (relative stereo) [AP1903, 2-Piperidinecarboxylic acid, 1-[(2S)-1-oxo-2-(3,4,5-trimethoxyphenyl)butyl]-, 1,2-ethanediylbis[imino(2-oxo-2,1-ethanediyl)oxy-3,1-phenylene[(1R)-3-(3,4-dimethoxyphenyl)propylidene]]ester, [2S-[1(R*),2R*[S*[S*[1(R*),2R*]]]]]-(9Cl)]?
A: plasma levels versus dose ([1]; 0.01, 0.05, 0.1, 0.5 and 1.0 mg/kg): directly proportional to dose; mean Cmax ([1]; 0.01-1.0 mg/kg dose range, IV over 2 hours): 10 to 1275 ng/mL; plasma level as % of maximal concentration ([1]; 0.5 hours post-dose): approximately 18%; plasma level as % of maximal concentration ([1]; 2 hours post-dose): ~7%; plasma level as % of maximal concentration ([1]; 10 hours post-dose): ~1%; well-tolerated doses ([1]; Phase I study): up to 1 mg/kg; amount needed for effective signaling, converted (cells [2]): 16 to 160 µg/L; amount needed in vitro for effective signaling of cells (cells [3]): 10 to 100 nM

B1: D111H: mutant CSR CD2z with D111H mutation within the CD2 extracellular domain (SEQ ID NO: 17118) (protein)
chain: MSFPCKFVASFLLIFNVSSKGAVSKEITNALETWGALGQDINLDIPSFQMSDDIDDIKWEKTSDKKKIAQFRKEKETFKEKDTYKLFKNGTLKIKHLKTDDQDIYKVSIYHTKGKNVLEKIFDLKIQERVSKPKISWTCINTTLTCEVMNGTDPELNLYQDGKHLKLSQRVITHKWTTSLSAKFKCTAGNKVSKESSVEPVSCPEKGLDIYLIIGICGGGSLLMVFVALLVFYITKRKKQRSRRNDEELETRAHRVATEERGRKPHQIPASTPQNPATSQHPPPPPGHRSQAPSHRPPPPGHRVQHQPQKRPPAPSGTQVHQQKGPPLPRPRVQPKPPHGAAENSLSPSSNRVKFSRSADAPAYKQGQNQLYNELNLGRREEYDVLDKRRGRDPEMGGKPRRKNPQEGLYNELQKDKMAEAYSEIGMKGERRRGKGHDGLYQGLSTATKDTYDALHMQALPPR
Q: Which results are given for B1?
A: degranulation (CD107a) against CD58 (human CD58 [4]): Little reactivity; also recorded: completely abrogating anti-CD58 degranulation activity; degree of gene editing compared to Allo CAR-T cells produced without a CSR (TCRb and b2M): a similar or greater degree of gene editing; surface expression and binding of anti-CD2 staining reagents [5]: strongly bound by all staining reagents; peak expansion of Allo CAR-T cells compared to Allo CAR-T cells produced without a CSR (Allo CAR-T cells): a greater degree of expansion

B2: CSR CD2z (chimeric stimulatory receptor: CD2 extracellular, transmembrane and cytoplasmic domains fused to the CD3z intracellular domain) (receptor)
chain: KEITNALETWGALGQDINLDIPSFQMSDDIDDIKWEKTSDKKKIAQFRKEKETFKEKDTYKLFKNGTLKIKHLKTDDQDIYKVSIYDTKGKNVLEKIFDLKIQERVSKPKISWTCINTTLTCEVMNGTDPELNLYQDGKHLKLSQRVITHKWTTSLSAKFKCTAGNKVSKESSVEPVSCPEKGLDIYLIIGICGGGSLLMVFVALLVFYITKRKKQRSRRNDEELETRAHRVATEERGRKPHQIPASTPQNPATSQHPPPPPGHRSQAPSHRPPPPGHRVQHQPQKRPPAPSGTQVHQQKGPPLPRPRVQPKPPHGAAENSLSPSSNRVKFSRSADAPAYKQGQNQLYNELNLGRREEYDVLDKRRGRDPEMGGKPRRKNPQEGLYNELQKDKMAEAYSEIGMKGERRRGKGHDGLYQGLSTATKDTYDALHMQALPPR
notes: Expressed from mRNA on the surface of primary human T cells (degranulation assays) or K562 cells (staining); also called CSR WT CD2z; WT CD2z CSR
Q: Does B2 bind (human CD58 [6])?
A: binds
